Measured values taken from patent US20240100062A1, “Methods of Treatment With an Iboga Alkaloid” (priority 2022, published 2024).

Tests used:
Type in all cases: in vivo, human
[1] = system: special operations veterans; test: Lag projection analysis of BOLD fMRI; details: baseline vs about four days post treatment; left orbitofrontal gyrus (lateral and anterior) and inferior frontal gyrus (orbital and triangular); fwec p<0.001
Experimental: fMRI data was also analyzed to inspect activity patterns as a function of time. A lag projection analysis measures temporal dynamics of blood oxygen level-dependent (BOLD) fMRI (Mitra et al., PNAS, E2235-E2244, 2015). Directed flow transfer of information is analyzed by comparing lag-correlation shift between voxel pairs. The average lag structure of a voxel indicates relative earliness or lateness in the brain, as a measure of whether the region is a source or sink of information. A paired T-test of fMRI images at baseline and about four days post treatment was done. […] These regions are involved in language formation, response inhibition and regulating goal-directed behavior. Slowing may reflect sustained processing and influence over the brain across long time scales.

[2] = system: special operations veterans; test: Wechsler Adult Intelligence Scale (WAIS-IV) PSI and WMI, Example 1 study
[3] = system: special operations veterans; test: Clinician rated psychiatric assessments (PTSD, depression, anxiety) overall, Example 1 study; details: following treatment; sustained at one-month follow-up
Experimental: The safety and efficacy of ibogaine treatment in combination with a cardioprotective agent was evaluated in subjects with a history of TBI. At baseline, study participants were experiencing clinically significant levels of disability, PTSD, depression, and anxiety. […] Indeed, disability measures continued to improve, and psychiatric symptom remission and response rates one-month post-treatment remained high.
Clinician administered scales included CAPS-5 (Clinician-administered PTSD Scale for DSM-5), which is a gold standard assessment of PTSD symptom severity; MADRS (Montgomery-Asberg Depression Rating Scale), a measure for depressive symptom severity; and Hamilton-Anxiety Rating Scale (HAM-A) (Shear, M. K. et al., Depress. Anxiety 13, 166-178 (2001)) a measure for anxiety symptom severity; SCID-5 (Structured Clinical Interview for DSM-5) Overview for a historical and environmental context of symptom presentation; MINI DSM-5 (Mini International Neuropsychiatric Interview from DSM-5) for a structured psychodiagnostics assessment; BAT-L (Boston Assessment of TBI—Lifetime) for a lifetime history of TBI and blast exposure; and Ohio State University TBI Identification Method (Short Form) for a lifetime history of TBI. MADRS testing provides an indication of depressive symptoms, CAPS-5 provides an indication of PTSD and SIGH-A provides an indication of anxiety. […]

[4] = system: special operations veterans; test: Brief Visuospatial Memory Test-Revised (BVMT-R), Example 1 study
[5] = system: special operations veterans; test: CAPS-5 clinician-administered PTSD scale, Example 1 study; details: for CAPS-5 score, mean: p(FDR) <0.001
Experimental: (§1) With subjects in the fasting state, an intravenous infusion of 1 gram of magnesium sulfate was administered 1-2 hours prior to treatment. […] Medical staff (MD, RN, or EMT) were onsite at a ratio of at least 1 staff per 2 patients throughout treatment for monitoring and management, but no specific coaching or psychological support was provided during treatment.
(§2) Post treatment, each subject was assessed four days after treatment, one month after treatment, and, if willing, one year after treatment. The post-treatment assessments conducted at four days and at one month after treatment included neuropsychological testing, measures of PTSD, depression, anxiety, mystical experiences, functional imaging and EEG. Post-treatment assessments conducted at one year after treatment included PTSD, depression, and anxiety measures.
Clinician administered scales included CAPS-5 (Clinician-administered PTSD Scale for DSM-5), which is a gold standard assessment of PTSD symptom severity; MADRS (Montgomery-Asberg Depression Rating Scale), a measure for depressive symptom severity; and Hamilton-Anxiety Rating Scale (HAM-A) (Shear, M. K. et al., Depress. Anxiety 13, 166-178 (2001)) a measure for anxiety symptom severity; SCID-5 (Structured Clinical Interview for DSM-5) Overview for a historical and environmental context of symptom presentation; MINI DSM-5 (Mini International Neuropsychiatric Interview from DSM-5) for a structured psychodiagnostics assessment; BAT-L (Boston Assessment of TBI—Lifetime) for a lifetime history of TBI and blast exposure; and Ohio State University TBI Identification Method (Short Form) for a lifetime history of TBI. MADRS testing provides an indication of depressive symptoms, CAPS-5 provides an indication of PTSD and SIGH-A provides an indication of anxiety. Collectively these overlap to provide indication of mood, concentration, sleep and tension.
For the CAPS-5, the test version with a […] structured interview of PTSD symptoms over the past week was used, using a 0 (“Absent”) to 4 (“Extreme/Incapacitating”) scale, with possible total scores ranging from 0 to 80. The score range 23 to 34 is considered moderate PTSD while a higher score represents severe PTSD (Weathers, F. W. et al., Psychol. Assess. 30, 383-395 (2018)).

[6] = system: male veterans with a history of TBI; test: Pseudo-continuous arterial spin labeling MRI, cerebral blood flow (Example 3); details: paired t-test across baseline, first post-treatment scan and 1 month post-treatment; p<0.001
Experimental: Arterial spin labeling (ASL) MR was used to measure cerebral blood flow in some of the subjects of the subjects enrolled in the study of Example 1. As described in Example 3, pseudo-continuous ASL (pcASL) was performed on the subject at baseline, about 1 week after treatment, and one-month after treatment. […] A first metric of interest was change in net quantity (mL/100 g tissue/min) of blood entering different regions of the brain. Images of the left posterior orbital gyrus, left anterior insula, left and right cerebral white matter at baseline and 1-week post treatment (images not shown) were analyzed and compared. […] A paired t-test across 3 time points—baseline (pre-treatment), 1 week post-treatment, and 1 month post-treatment—was employed.
A second metric of interest was regression between change in clinical scores versus change in relative cerebral blood perfusion from baseline to one-month post treatment. Multiple regression with clinical scores at baseline and one-month post treatment was used. […]
A first metric of interest was change in net quantity (mL/100 g tissue/min) of blood entering different regions of the brain. Images of the left posterior orbital gyrus, left anterior insula, left and right cerebral white matter at baseline and 1-2 days post treatment (images not shown) were analyzed and compared. […]

[7] = system: special operations veterans; test: WHODAS 2.0 disability assessment, Example 1 study; details: for WHODAS 2.0 Self Care subscale, mean: baseline 5.2% ± 9.2%; for WHODAS 2.0 Mobility subscale, mean: baseline 14.7% ± 15.7%
Experimental: as §1, §2
World Health Organization Disability Assessment Scale 2.0 (WHODAS 2.0) was used as a measure of function. WHODAS was used to assess the impact of health conditions across six life domains (cognition, mobility, self-care, interpersonal, life activities, and community participation) and it is sensitive to change over time (Gold, L. H., J. Am. Acad. Psychiatry Law 42, 9 (2014). Each item in the assessment is rated on a scale ranging from no problems to extreme problems (Üstün, T. B. et al., Measuring health and disability: Manual for WHO disability assessment schedule WHODAS 2.0. (World Health Organization, 2010)). To capture inter-individual variability in disability the WHODAS complex scoring method was used. Raw scores were converted to a metric ranging from 0 (no disability) to 100 (full disability), by calculating the ratio of the participant's score relative to the maximum possible score in each domain as well as to the total score (Id.). A score of 20%-39% was considered mild, 40%-59% was moderate, 60%-79% was moderate-severe and 80%-100% was severe. Scores from baseline were compared to scores from one-month post treatment.

[8] = system: special operations veterans; test: Hopkins Verbal Learning Test-Revised (HVLT-R), Example 1 study

## CCC1CC2CC3c4[nH]c5ccc(OC)cc5c4CCN(C2)C13 (stereo not drawn) [ibogaine, Ibogaine]
[1]
  Lag structure change (BOLD fMRI): relative slowing
[2]; 1-wk post, baseline 55.1 ± 8.3, p(FDR) 0.034
  Working Memory (WMI, WAIS-IV), mean ± SD: 57.0 ± 9.5 T score
[2]; baseline vs 1-month post
  Working Memory (WMI, WAIS-IV), D: 0.31
[2]; baseline vs 1-wk post
  Processing Speed (PSI, WAIS-IV), D: 0.97
  Working Memory (WMI, WAIS-IV), D: 0.37
[3]
  Cohen's D on clinician rated psychiatric assessments: > 2
[4]; baseline vs 1-month post
  Visuospatial Memory (BVMT-R), D: 0.32
[4]; baseline vs 1-wk post
  Visuospatial Memory (BVMT-R), D: 0.50
[4]; both timepoints
  Visual memory improvement: significant improvement in visual memory at both timepoints
[5]; 1-mo. post, SD 8.1, baseline 31.7 ± 13.0, N 28, only participants with mild TBI
  CAPS-5 score, mean: 4.8
[5]; 1-mo. post, SD 8.7, baseline 35.7 ± 11.0, N 23, only participants meeting diagnostic criteria per MINI at baseline
  CAPS-5 score, mean: 6.0
[5]; 1-mo. post, SD 17%, only participants with mild TBI
  CAPS-5 % Reduction vs Baseline, mean: 88% ±
[5]; 1-mo. post, SD 19%, only participants meeting diagnostic criteria per MINI
  CAPS-5 % Reduction vs Baseline, mean: 86% ±
[5]; 1-wk post, SD 5.2, baseline 35.7 ± 11.0, N 23, only participants meeting diagnostic criteria per MINI at baseline
  CAPS-5 score, mean: 4.4
[5]; 1-wk. post, SD 4.5, baseline 31.7 ± 13.0, N 28, only participants with mild TBI
  CAPS-5 score, mean: 3.6
[5]; 1-wk. post, SD 14%, only participants with mild TBI
  CAPS-5 % Reduction vs Baseline, mean: 89% ±
[5]; 1-wk. post, SD 17%, only participants meeting diagnostic criteria per MINI
  CAPS-5 % Reduction vs Baseline, mean: 87% ±
[6]
  Change in absolute cerebral blood flow: No significant changes
[7]; Baseline vs One-Month
  WHODAS 2.0 Mobility subscale, D: 0.83
  WHODAS 2.0 Self Care subscale, D: 0.51
[7]; Baseline vs Post-Treatment
  WHODAS 2.0 Cognition subscale, D: 0.96
  WHODAS 2.0 Community Participation subscale, D: 0.53
  WHODAS 2.0 Interpersonal subscale, D: 0.60
  WHODAS 2.0 Life Activities subscale, D: 0.48
  WHODAS 2.0 Mobility subscale, D: 0.53
  WHODAS 2.0 Self Care subscale, D: 0.37
[7]; One-Month, SD 2.9%, p(FDR) 0.009
  WHODAS 2.0 Self Care subscale, mean: 1.0% ±
[7]; One-Month, SD 3.3%, p(FDR) <0.001
  WHODAS 2.0 Mobility subscale, mean: 1.3% ±
[7]; One-Month, SD 7.9%, baseline 36.1% ± 14.6%, p(FDR) <0.001
  WHODAS 2.0 Cognition subscale, mean: 5.0% ±
[7]; One-Month, SD 9.5%, baseline 32.3% ± 20.4, p(FDR) <0.001
  WHODAS 2.0 Interpersonal subscale, mean: 4.8% ±
[7]; One-Month, SD 13.1%, baseline 35.6% ± 21.1%, p(FDR) <0.001
  WHODAS 2.0 Community Participation subscale, mean: 5.9% ±
[7]; One-Month, SD 16.2%, baseline 41.1% ± 24.8%, p(FDR) <0.001
  WHODAS 2.0 Life Activities subscale, mean: 9.1% ±
[7]; Post-Treatment, SD 4.7%, p(FDR) 0.028
  WHODAS 2.0 Self Care subscale, mean: 1.9% ±
[7]; Post-Treatment, SD 13.5%, p(FDR) 0.001
  WHODAS 2.0 Mobility subscale, mean: 7.2% ±
[7]; immediately and one-month post-treatment
  Functioning: clinically and statistically significant improvements in functioning
[8]; 1-wk post, baseline 47.4 ± 10.1, p(FDR) 0.583
  Verbal Memory (HVLT-R), mean ± SD: 49.0 ± 9.2 T score
[8]; baseline vs 1-month post
  Verbal Memory (HVLT-R), D: 0.47
[8]; baseline vs 1-wk post
  Verbal Memory (HVLT-R), D: 0.17
[8]; one-month follow-up
  Verbal memory improvement: significant improvement
